Values of other authors, collected in patent publication US4883862A, “Mercaptosuccinyl glycyl-glycyl-glycine a complex thereof with Tc-99m, and methods of making the same” (Albert Einstein College of Medicine - of Yeshiva University, priority 1988, dated 1989).

[1] = 3 hrs after intravenous administration of 500 uCi

radiation dose to a normal kidney [1]: 47 mrad
radiation dose to the bladder wall [1]: 1.7 rad
renal absorbed dose (patients with impaired renal function): ≥ 3 rad
Structure (SMILES): O=C(O)CNC(=O)c1ccccc1[131I] [I-131 OIH, o-[^131 I]iodohippurate]
